These are literature values, as cited in patent US20220202849A1, “PERK AS A TARGET FOR VIRUS THERAPEUTICS” (priority 2020, published 2022).

SMILES strings stand for the structures.

For the data set, the system named is PERK. The conditions noted are these: as quoted with vendor catalog entry; read-out: PERK inhibitor IC50.
On to `Cn1cc(-c2ccc3c(c2)CCN3C(=O)Cc2cccc(C(F)(F)F)c2)c2c(N)ncnc21` [GSK2606414], for which the IC50 is […].
`Cc1cccc(CC(=O)N2CCc3c2ccc(-c2cn(C)c4ncnc(N)c24)c3F)n1` [GSK2656157]: the IC50 is roughly 0.9 nM.
Turning to `O=C(COc1ccc(Cl)cc1)N[C@H]1CC[C@@H](NC(=O)COc2ccc(Cl)cc2)CC1` [ISRIB (trans-isomer), ISRIB], the IC50 is roughly 5 nM.
